Reference: DBAASP
≈ marks a conversion by molar mass, not a printed value. Where “and” joins values, the source holds several entries; their conditions need not be identical. Identical values can stand only once.

Key:
Assay in all cases: ≥ marks a high value that may be exact or a test limit, other limits are often not marked, values filed in µg/mL are converted to µM
[1] = tested on: Staphylococcus aureus ATCC 25923
[2] = tested on: Enterococcus faecalis ATCC 29212
[3] = tested on: Escherichia coli mcr106
[4] = tested on: Mycobacterium tuberculosis H37Rv
[5] = tested on: Staphylococcus aureus 28841
[6] = tested on: Staphylococcus aureus 30371
[7] = tested on: Staphylococcus aureus 930918-3
[8] = tested on: Pseudomonas aeruginosa MR3007
[9] = tested on: Listeria monocytogenes EGD
[10] = tested on: Klebsiella pneumoniae
[11] = tested on: Escherichia coli BAS 849
[12] = tested on: Mycobacterium avium
[13] = tested on: Enterococcus faecalis CDC 21
[14] = tested on: Escherichia coli ML-35p
[15] = tested on: Enterococcus faecium
[16] = tested on: Salmonella enterica serovar typhimurium MS7953s
[17] = tested on: Klebsiella pneumoniae ATCC 13883
[18] = tested on: Salmonella enterica subsp. enterica serovar Typhimurium ATCC 14028s
[19] = tested on: Pseudomonas aeruginosa MR2123
[20] = tested on: Pseudomonas aeruginosa SBI-N
[21] = tested on: Mycobacterium tuberculosis
[22] = tested on: Escherichia coli ATCC 25922
[23] = tested on: Enterococcus faecium 94-132
[24] = tested on: Pseudomonas aeruginosa ATCC 27853
[25] = tested on: Acinetobacter baumannii ATCC 19606R
[26] = tested on: Batrachochytrium dendrobatidis
[27] = tested on: Staphylococcus aureus ATCC 29213
[28] = tested on: Acinetobacter baumannii ATCC 19606
[29] = tested on: Streptococcus agalactiae ATCC 12386
[30] = tested on: Psychrobacter faecalis X29
[31] = tested on: Staphylococcus aureus ATCC 2592
[32] = tested on: Rhodococcus rhodochrous X15
[33] = tested on: Acinetobacter calcoaceticus
[34] = tested on: Shigella dysenteriae
[35] = tested on: Pseudomonas aeruginosa
[36] = tested on: Bacillus pumilus
[37] = tested on: Candida albicans ATCC 2002
[38] = tested on: Bacillus cereus
[39] = tested on: Fusarium solani
[40] = tested on: Staphylococcus aureus USA 100
[41] = tested on: Cryptococcus neoformans ATCC 208821
[42] = tested on: Pseudomonas aeruginosa ATCC 9027
[43] = tested on: Staphylococcus aureus USA 300
[44] = tested on: Fusarium oxysporum
[45] = tested on: Escherichia coli ATCC 23716
[46] = tested on: Staphylococcus aureus ΔmprF
[47] = tested on: Staphylococcus aureus ΔmprFpRBsyn
[48] = tested on: Staphylococcus aureus ATCC 43300
[49] = tested on: Yersinia pestis KIM pYV
[50] = tested on: Bordetella bronchiseptica CUN 11844-99
[51] = tested on: Staphylococcus aureus
[52] = tested on: Pseudomonas aeruginosa CUN 4158-02
[53] = tested on: Brucella abortus 9.49 (per-)

For CC[C@H](C)[C@H](NC(=O)CN)C(=O)NCC(=O)N[C@@H](CCCCN)C(=O)N[C@@H](Cc1ccccc1)C(=O)N[C@@H](CC(C)C)C(=O)N[C@@H](Cc1c[nH]cn1)C(=O)N[C@@H](CO)C(=O)N[C@@H](C)C(=O)NCC(=O)N[C@@H](CCCCN)C(=O)N[C@@H](Cc1ccccc1)C(=O)NCC(=O)N[C@@H](CCCCN)C(=O)N[C@@H](C)C(=O)N[C@@H](Cc1ccccc1)C(=O)N[C@H](C(=O)NCC(=O)N[C@@H](CCC(=O)O)C(=O)N[C@H](C(=O)N[C@@H](CCSC)C(=O)N[C@@H](CCCCN)C(=O)N[C@@H](CO)C(=O)O)[C@@H](C)CC)C(C)C [GIGKFLHSAGKFGKAFVGEIMKS], which MIC [1] is on record?
The MIC was greater than 207 µM.

And the MIC [2]?
The MIC was greater than 207 µM.

What about the MIC [3] of the same compound?
Its MIC is 0.373 µM (≈ 0.9 µg/mL).

And the MIC [4]?
Its MIC is no less than 498 µM.

And the MIC [5]?
The MIC was no less than 39.3 µM.

What about the MIC [6] of the same compound?
Its MIC is no less than 83 µM.

And the MIC [7]?
Its MIC is 9.13 µM (≈ 22 µg/mL).

What about the MIC [8] of the same compound?
The MIC was 0.207 µM (≈ 0.5 µg/mL).

And the MIC [9]?
Its MIC is 1.91 µM (≈ 4.6 µg/mL).

What about the MIC [10] of the same compound?
Its MIC is 0.747 µM (≈ 1.8 µg/mL).

What about the MIC [11] of the same compound?
Its MIC is 0.29 µM (≈ 0.7 µg/mL).

And the MIC [12]?
Its MIC is no less than 53.1 µM.

What about the MIC [13] of the same compound?
The MIC was 3.03 µM (≈ 7.3 µg/mL).

And the MIC [14]?
Its MIC is 0.29 µM (≈ 0.7 µg/mL).

And the MIC [15]?
The MIC was 1.66 µM (≈ 4 µg/mL).

And the MIC [16]?
The MIC was 0.249 µM (≈ 0.6 µg/mL).

And the MIC [17]?
The MIC was no less than 104 µM.

What about the MIC [18] of the same compound?
Its MIC is 0.498 µM (≈ 1.2 µg/mL).

What about the MIC [19] of the same compound?
Its MIC is 0.166 µM (≈ 0.4 µg/mL).

And the MIC [20]?
The MIC was 0.166 µM (≈ 0.4 µg/mL).

And the MIC [21]?
The MIC was no less than 53.1 µM.

And the MIC [22]?
Its MIC is 104 µM (≈ 250 µg/mL).

And the MIC [23]?
Its MIC is 1.16 µM (≈ 2.8 µg/mL).

What about the MIC [24] of the same compound?
The MIC was greater than 207 µM.

And the MIC [25]?
The MIC was 26.6 µM (≈ 64 µg/mL).

What about the MIC [26] of the same compound?
The MIC was no less than 47 µM.

And the MIC [27]?
Its MIC is greater than 207 µM.

And the MIC [28]?
Its MIC is 26.6 µM (≈ 64 µg/mL).

What about the MIC [29] of the same compound?
The MIC was 31.1 µM (≈ 75 µg/mL).

Which MIC [30] does the source give for CC[C@H](C)[C@H](NC(=O)[C@H](C)NC(=O)[C@@H](NC(=O)[C@H](CC(=O)O)NC(=O)[C@H](CCCCN)NC(=O)[C@H](Cc1ccccc1)NC(=O)[C@@H](NC(=O)[C@H](CC(=O)O)NC(=O)[C@H](CC(C)C)NC(=O)[C@@H](NC(=O)CN)C(C)C)[C@@H](C)O)C(C)C)C(=O)NCC(=O)N[C@H](C(=O)N[C@@H](C)C(=O)N[C@@H](CCCCN)C(=O)NCC(=O)N[C@@H](C)C(=O)NCC(=O)N[C@H](C(=O)NCC(=O)N[C@H](C(=O)N[C@@H](CC(C)C)C(=O)N[C@@H](CCCCN)C(=O)N[C@@H](C)C(=O)N[C@@H](CC(C)C)C(=O)N[C@@H](CC(C)C)C(=O)N[C@H]1CSSC[C@@H](C(=O)O)NC(=O)[C@H](CO)NC(=O)[C@H](CCCCN)NC(=O)[C@H](CC(=O)O)NC(=O)[C@H](CC(C)C)NC(=O)[C@H](CCCCN)NC1=O)C(C)C)[C@@H](C)O)C(C)C [GVLDTFKDVAIGVAKGAGTGVLKALLCKLDKSC] here?
Its MIC is 15 µM (≈ 49.3 µg/mL).

And the MIC [31]?
The MIC was no less than 60 µM.

What about the MIC [32] of the same compound?
The MIC was 30 µM (≈ 98.7 µg/mL).

Which results are given for CC[C@H](C)[C@H](NC(=O)[C@@H]1CCCN1C(=O)[C@H](Cc1ccccc1)NC(=O)[C@@H](N)Cc1ccccc1)C(=O)N[C@H](C(=O)NCC(=O)N[C@@H](CCCCN)C(=O)N[C@@H](CC(C)C)C(=O)N[C@@H](CC(C)C)C(=O)N[C@@H](Cc1ccccc1)C(=O)NCC(=O)N[C@@H](CC(C)C)C(=O)N[C@@H](CC(C)C)C(N)=O)C(C)C [FFPIVGKLLFGLL]?
MIC [33]: ≥ 41 µM; MIC [34]: 20.5 µM (≈ 30 µg/mL); MIC [35]: 5.12 µM (≈ 7.5 µg/mL); MIC [36]: 10.2 µM (≈ 15 µg/mL); MIC [31]: 5.12 µM (≈ 7.5 µg/mL); MIC [37]: 3.42 µM (≈ 5 µg/mL); MIC [22]: 10.2 µM (≈ 15 µg/mL); MIC [38]: ≥ 51.2 µM

NC(=O)[C@H](Cc1c[nH]c2ccccc12)NC(=O)[C@H](CCCN=C(N)N)NC(=O)[C@H](Cc1c[nH]c2ccccc12)NC(=O)[C@H](CCCN=C(N)N)NC(=O)[C@H](Cc1c[nH]c2ccccc12)NC(=O)[C@H](CCCN=C(N)N)NC(=O)[C@H](Cc1c[nH]c2ccccc12)NC(=O)[C@@H](N)CCCN=C(N)N [RWRWRWRW] was tested. Which MIC [39] did it give?
The MIC was 8 µM (≈ 11.1 µg/mL).

What about the MIC [40] of the same compound?
Its MIC is 6.25 µM (≈ 8.67 µg/mL).

What about the MIC [41] of the same compound?
The MIC was 23.1 µM (≈ 32 µg/mL).

And the MIC [42]?
The MIC was 50 µM (≈ 69.3 µg/mL).

And the MIC [43]?
The MIC was 12.5 µM (≈ 17.3 µg/mL).

What about the MIC [44] of the same compound?
The MIC was 16 µM (≈ 22.2 µg/mL).

CC[C@H](C)[C@H](NC(=O)[C@H](CCCCN)NC(=O)[C@H](CCCCN)NC(=O)[C@H](CO)NC(=O)[C@@H](NC(=O)CNC(=O)[C@H](CCCN=C(N)N)NC(=O)[C@H](CC(C)C)NC(=O)[C@@H](NC(=O)[C@@H](N)CCCCN)[C@@H](C)CC)C(C)C)C(=O)N[C@@H](CCSC)C(=O)N[C@@H](CCCN=C(N)N)C(=O)N[C@H](C(=O)N[C@@H](Cc1ccccc1)C(=O)N[C@@H](CC(C)C)C(=O)N[C@@H](CCCN=C(N)N)C(=O)N[C@@H](CCCN=C(N)N)C(=O)N[C@H](C(=O)N[C@@H](CC(C)C)C(=O)N[C@H](C(=O)NCC(=O)N[C@@H](CCCCN)C(=O)N[C@@H](CCCCN)C(N)=O)[C@@H](C)O)[C@@H](C)CC)[C@@H](C)O [KILRGVSKKIMRTFLRRILTGKK] was tested. Which MIC [45] did it give?
Its MIC is 2.92 µM and 6.93 µM.

What about the MIC [46] of the same compound?
The MIC was 1.46 µM (≈ 4 µg/mL).

And the MIC [47]?
The MIC was 1.46 µM (≈ 4 µg/mL).

What about the MIC [48] of the same compound?
Its MIC is 23.3 µM (≈ 64 µg/mL).

What about the MIC [49] of the same compound?
Its MIC is 5.83 µM (≈ 16 µg/mL).

What about the MIC [50] of the same compound?
The MIC was 0.729 µM (≈ 2 µg/mL).

What about the MIC [51] of the same compound?
The MIC was 5.83 µM (≈ 16 µg/mL).

And the MIC [52]?
The MIC was 1.46 µM (≈ 4 µg/mL).

And the MIC [22]?
Its MIC is 1.46 µM (≈ 4 µg/mL).

And the MIC [28]?
The MIC was 1.46 µM (≈ 4 µg/mL).

What about the MIC [53] of the same compound?
The MIC was 1.46 µM (≈ 4 µg/mL).
